In US7056891B2 (priority 2000, dated 2006):
Read-outs that look alike come from different tables or passages of the source.

Tests used:
TSST-1 = format: cell-based, S. aureus MN8
S. aureus MN8 = format: cell-based, Staphylococcus aureus; settings: 24 hours at 35° C.

Substance | TSST-1 (TSST-1; 24 hours at 35° C.) [ng/mL] | Final [S. aureus] (S. aureus MN8) | TSST-1 (TSST-1) [ng/mL]
Steareth-2 | 680.7 | 5.76 x10^9 CFU/ml | 
Laureth-4 | 531.8 | 4.57 x10^9 CFU/ml | 
PPG-5 Laureth-5 |  | 3.82 x10^9 CFU/ml | 609.2
